In ChEMBL document CHEMBL3885881, “DrugMatrix”:

Species on record: Rattus norvegicus
Assay: DrugMatrix - Regimen: Daily Repeat
Format: toxicity, organism-based, Sprague-Dawley
Set-up: regimen Daily Repeat, gender Male, age 6-8 weeks
Conditions: in vivo, po, route oral GAVAGE, vehicle .5 % CMC; for ABSOLUTE BASOPHIL / ABSOLUTE EOSINOPHIL / ABSOLUTE LYMPHOCYTE / ABSOLUTE SEGMENTED NEUTROPHIL / BASOPHIL / EOSINOPHIL / ERYTHROCYTE COUNT / HEMATOCRIT / LYMPHOCYTE / MEAN CORPUSCULAR HEMOGLOBIN / MEAN CORPUSCULAR HEMOGLOBIN CONCENTRATION / MEAN CORPUSCULAR VOLUME / MONOCYTE / NEUTROPHIL / NUCLEATED RED BLOOD CELLS / PLATELET COUNT / LEUKOCYTE COUNT: tissue Blood; for ALANINE AMINOTRANSFERASE / ALBUMIN / ALKALINE PHOSPHATASE / ASPARTATE AMINOTRANSFERASE / BLOOD UREA NITROGEN / CARBON DIOXIDE / CHLORIDE / CHOLESTEROL / CREATINE PHOSPHOKINASE / CREATININE / GLUCOSE / LACTATE DEHYDROGENASE / PHOSPHORUS / POTASSIUM / SODIUM / TOTAL BILIRUBIN / TOTAL PROTEIN / URIC ACID: tissue Plasma
[1] = 0 mg/kg, 72 h, dose level Control, time 3 day
[2] = 0 mg/kg, 120 h, dose level Control, time 5 day
[3] = 3 mg/kg, 72 h, dose level Low, time 3 day
[4] = 3 mg/kg, 120 h, dose level Low, time 5 day

CCN(CC)CCOc1ccc(/C(=C(/Cl)c2ccccc2)c2ccccc2)cc1 [ENCLOMIPHENE]
ABSOLUTE BASOPHIL [1]: 0 CELLS/uL | ABSOLUTE EOSINOPHIL [1]: 222.83 CELLS/uL | ABSOLUTE LYMPHOCYTE [1]: 14453 CELLS/uL | ABSOLUTE SEGMENTED NEUTROPHIL [1]: 1490.83 CELLS/uL | BASOPHIL [1]: 0% | EOSINOPHIL [1]: 1.33% | ERYTHROCYTE COUNT [1]: 5.76 x10E6/uL | HEMATOCRIT [1]: 36.52% | LYMPHOCYTE [1]: 89.33% | MEAN CORPUSCULAR HEMOGLOBIN [1]: 23.37 pg | MEAN CORPUSCULAR HEMOGLOBIN CONCENTRATION [1]: 36.85 G/DL | MEAN CORPUSCULAR VOLUME [1]: 63.47 fL | MONOCYTE [1]: 0% | NEUTROPHIL [1]: 9.33% | NUCLEATED RED BLOOD CELLS [1]: 0 /100WBC | PLATELET COUNT [1]: 1239.5 x10E3/uL | ALANINE AMINOTRANSFERASE [1]: 43.83 u/L | ALBUMIN [1]: 4.27 G/DL | ALKALINE PHOSPHATASE [1]: 398.83 u/L | ASPARTATE AMINOTRANSFERASE [1]: 81.17 u/L | BLOOD UREA NITROGEN [1]: 17.67 mg/dL | CARBON DIOXIDE [1]: 27.5 mmol/L | CHLORIDE [1]: 99.17 MEQ/L | CHOLESTEROL [1]: 74 mg/dL | CREATINE PHOSPHOKINASE [1]: 331.5 u/L | CREATININE [1]: 0.2 mg/dL | GLUCOSE [1]: 171.33 mg/dL | LACTATE DEHYDROGENASE [1]: 241.67 u/L | PHOSPHORUS [1]: 12.25 mg/dL | POTASSIUM [1]: 6.33 MEQ/L | SODIUM [1]: 141.28 MEQ/L | TOTAL BILIRUBIN [1]: 0.15 mg/dL | TOTAL PROTEIN [1]: 5.98 G/DL | URIC ACID [1]: 1.63 mg/dL | ABSOLUTE BASOPHIL [2]: 0 CELLS/uL | ABSOLUTE EOSINOPHIL [2]: 148.67 CELLS/uL | ABSOLUTE LYMPHOCYTE [2]: 16020.5 CELLS/uL | ABSOLUTE SEGMENTED NEUTROPHIL [2]: 1468.33 CELLS/uL | BASOPHIL [2]: 0% | EOSINOPHIL [2]: 1% | ERYTHROCYTE COUNT [2]: 5.78 x10E6/uL | HEMATOCRIT [2]: 35.77% | LEUKOCYTE COUNT [2]: 17.67 x10E3/uL | LYMPHOCYTE [2]: 90.5% | MEAN CORPUSCULAR HEMOGLOBIN [2]: 23.22 pg | MEAN CORPUSCULAR HEMOGLOBIN CONCENTRATION [2]: 37.47 G/DL | MEAN CORPUSCULAR VOLUME [2]: 61.92 fL | MONOCYTE [2]: 0.17% | NEUTROPHIL [2]: 8.33% | NUCLEATED RED BLOOD CELLS [2]: 0.17 /100WBC | PLATELET COUNT [2]: 1255.5 x10E3/uL | ALANINE AMINOTRANSFERASE [2]: 46.5 u/L | ALBUMIN [2]: 4.38 G/DL | ALKALINE PHOSPHATASE [2]: 336 u/L | ASPARTATE AMINOTRANSFERASE [2]: 76.5 u/L | BLOOD UREA NITROGEN [2]: 20 mg/dL | CARBON DIOXIDE [2]: 27.5 mmol/L | CHLORIDE [2]: 101 MEQ/L | CHOLESTEROL [2]: 71.33 mg/dL | CREATINE PHOSPHOKINASE [2]: 231.83 u/L | CREATININE [2]: 0.37 mg/dL | GLUCOSE [2]: 168.83 mg/dL | LACTATE DEHYDROGENASE [2]: 174 u/L | PHOSPHORUS [2]: 11.48 mg/dL | POTASSIUM [2]: 6.82 MEQ/L | SODIUM [2]: 143.8 MEQ/L | TOTAL BILIRUBIN [2]: 0.2 mg/dL | TOTAL PROTEIN [2]: 5.98 G/DL | URIC ACID [2]: 1.83 mg/dL | ABSOLUTE BASOPHIL [3]: 0 CELLS/uL | ABSOLUTE EOSINOPHIL [3]: 54.33 CELLS/uL | ABSOLUTE LYMPHOCYTE [3]: 13020.67 CELLS/uL | ABSOLUTE SEGMENTED NEUTROPHIL [3]: 996.33 CELLS/uL | BASOPHIL [3]: 0% | EOSINOPHIL [3]: 0.33% | ERYTHROCYTE COUNT [3]: 5.87 x10E6/uL | HEMATOCRIT [3]: 35.93% | LEUKOCYTE COUNT [3]: 14.23 x10E3/uL | LYMPHOCYTE [3]: 91.67% | MEAN CORPUSCULAR HEMOGLOBIN [3]: 24.23 pg | MEAN CORPUSCULAR HEMOGLOBIN CONCENTRATION [3]: 39.57 G/DL | MEAN CORPUSCULAR VOLUME [3]: 61.2 fL | MONOCYTE [3]: 1% | NEUTROPHIL [3]: 7% | NUCLEATED RED BLOOD CELLS [3]: 0 /100WBC | PLATELET COUNT [3]: 1129 x10E3/uL | ALANINE AMINOTRANSFERASE [3]: 57.33 u/L | ALBUMIN [3]: 4.5 G/DL | ALKALINE PHOSPHATASE [3]: 614.33 u/L | ASPARTATE AMINOTRANSFERASE [3]: 88 u/L | BLOOD UREA NITROGEN [3]: 13.67 mg/dL | CARBON DIOXIDE [3]: 25.33 mmol/L | CHLORIDE [3]: 105.67 MEQ/L | CHOLESTEROL [3]: 37 mg/dL | CREATINE PHOSPHOKINASE [3]: 178 u/L | CREATININE [3]: 0.16 mg/dL | GLUCOSE [3]: 148 mg/dL | LACTATE DEHYDROGENASE [3]: 196.67 u/L | PHOSPHORUS [3]: 13.37 mg/dL | POTASSIUM [3]: 6.75 MEQ/L | SODIUM [3]: 151.6 MEQ/L | TOTAL BILIRUBIN [3]: 0.2 mg/dL | TOTAL PROTEIN [3]: 6.17 G/DL | URIC ACID [3]: 1.43 mg/dL | ABSOLUTE BASOPHIL [4]: 0 CELLS/uL | ABSOLUTE EOSINOPHIL [4]: 38.33 CELLS/uL | ABSOLUTE LYMPHOCYTE [4]: 13151.33 CELLS/uL | ABSOLUTE SEGMENTED NEUTROPHIL [4]: 736.67 CELLS/uL | BASOPHIL [4]: 0% | EOSINOPHIL [4]: 0.33% | ERYTHROCYTE COUNT [4]: 6.2 x10E6/uL | HEMATOCRIT [4]: 39.87% | LEUKOCYTE COUNT [4]: 14.1 x10E3/uL | LYMPHOCYTE [4]: 93.33% | MEAN CORPUSCULAR HEMOGLOBIN [4]: 24.13 pg | MEAN CORPUSCULAR HEMOGLOBIN CONCENTRATION [4]: 37.57 G/DL | MEAN CORPUSCULAR VOLUME [4]: 64.33 fL | MONOCYTE [4]: 1% | NEUTROPHIL [4]: 5.33% | NUCLEATED RED BLOOD CELLS [4]: 0 /100WBC | PLATELET COUNT [4]: 1362.67 x10E3/uL | ALANINE AMINOTRANSFERASE [4]: 51.67 u/L
